Where two headings read alike, the source gives them in different places.
Columns and labels:
H22 tumor cells = test: H22 syngeneic liver cancer model, tumor growth and tolerability; assay type: in vivo
Experimental: The inventors undertook a combination study of APL-101 and an anti-PD-1 antibody to evaluate the safety and efficacy of the combination. In the H22 liver cancer model in syngeneic mice, four groups, ten animals per group received either vehicle (PVP K30 at 20 mg/kg orally, once a day for three weeks), APL-101 (10 mg/kg orally, once a day for three weeks), anti-PD-1 (10 mg/kg intraperitoneal injection, twice a week for three weeks), or APL-101 plus anti-PD-1.
(§1) Animals: female C57BL/6 mice, age 6-8 weeks and of body weight 18-20 g, were provided by Shanghai Lingchang Bio-Technology Co. Ltd.
APL-101 were provided by CBT pharmaceuticals (now Apollomics, Inc.). […]
Cell culture: The H22 tumor cell line were maintained in vitro in RPMI-1640 medium supplemented with 10% fetal bovine serum at 37° C. in an atmosphere of 5% CO2 in air. […] The cells growing in an exponential growth phase were harvested and counted for tumor inoculation. […]
(§2) Observation and data collection: After tumor cells inoculation, the animals were checked daily for morbidity and mortality. During routine monitoring, the animals were checked for any effects of tumor growth and treatments on behavior such as mobility, food and water consumption, body weight gain/loss (body weights were measured twice weekly after randomization), eye/hair matting and any other abnormalities. […] (Tumor weight were measured at the end of study). […]

[1] = 150 mg every 12 hours; 300 mg total daily dose; cited from earlier work
MC38 tumor cells = test: MC-38 syngeneic colon cancer model, tumor growth and tolerability; assay type: in vivo
Experimental: The inventors undertook a combination study of APL-101 and an anti-PD-1 antibody to evaluate the safety and efficacy of the combination. In the MC-38 colon cancer model in syngeneic mice, four groups, five animals per group received either vehicle (water at 20 mg/kg orally, once a day), APL-101 (10 mg/kg orally, once a day), anti-PD-1 (10 mg/kg intraperitoneal injection, twice a week), or APL-101 plus anti-PD-1. In the vehicle group as well as the APL-101 group, animals were dosed daily on Days 1-15 whereas in the single agent anti-PD-1 group, doses were administered on Days 1, 4, 8, 11, and 15. In the combination arm of APL-101 and anti-PD-1, APL-101 was administered on Days 5-15 (4-day delay) while the anti-PD-1 was dosed on Days 1, 4, 8, 11, and 15.
as §1
APL-101 were provided by CBT pharmaceuticals (now Apollomics, Inc.). Anti-PD 1 antibodies were supplied by BioXcell.
Cell culture: The MC38 tumor cells were thawed and maintained in vitro as a monolayer culture in DMEM medium supplemented with 10% heat inactivated fetal bovine serum at 37° C. in an atmosphere of 5% CO2 in air. […] The cells growing in an exponential growth phase were harvested and counted for tumor inoculation. […]
Group assignment: Before grouping and treatment, all animals were weighed and the tumor volumes were measured using a caliper. […]
Observation and data collection: After tumor cells inoculation, the animals were checked daily for morbidity and mortality. During routine monitoring, the animals were checked for any effects of tumor growth and treatments on normal behavior such as mobility, visual estimation of food and water consumption, body weight gain/loss (body weights were measured twice per week after randomization), eye/hair matting and any other abnormal effect. Death and observed clinical signs were recorded in the comment of datasheet for each animal in detail. […] (Tumor weight was measured at the end of study). […]

RENCA tumor cells = test: Syngeneic Renca kidney cancer model, tumor growth and tolerability; assay type: in vivo
Text: The inventors undertook a combination study of APL-101 and an anti-PD-1 antibody to evaluate the safety and efficacy of the combination. […]
as §1
APL-101 were provided by CBT pharmaceuticals (Apollomics, Inc.). Anti-PD 1 antibodies were supplied by BioXcell. PVP K30 were supplied by Fluka Analytical.
Cell culture: The Renca tumor cell line was maintained in vitro in DMEM medium supplemented with 10% fetal bovine serum at 37° C. in an atmosphere of 5% CO2 in air. The tumor cells were routinely subcultured twice weekly. The cells growing in an exponential growth phase were harvested and counted for tumor inoculation. […]
as §2, with “abnormalities. Mortality and observed clinical signs were recorded for individual animals in detail.” for “abnormalities.”

[2] = 3 mg/kg IV on Day 1 and Day 15 of 28-day cycle; relapsed and refractory solid tumor subjects; cited from earlier work

Row | Compound | Mean percent tumor growth (H22 tumor cells; H22 syngeneic liver cancer model, APL-101 10 mg/kg QD x3 weeks, anti-PD-1 IP 10 mg/kg BIW x3 weeks) [%] | body weight of treated mice (H22 tumor cells; H-22 model, FIG. 2C, alone or in combination) | dose deemed safe by Safety Review Committee [1] | Mean percent tumor growth (MC38 tumor cells; MC 38 syngeneic model, APL-101 10 mg/kg qd, anti-PD-1 Ab 10 mg/kg biw) [%] | body weight of treated mice (MC38 tumor cells; MC-38 model, FIG. 1C, alone or in combination) | mean percent tumor growth inhibition (MC38 tumor cells; MC-38 syngeneic mice, APL-101 PO 10 mg/kg QD, anti-PD-1 IP 10 mg/kg BIW, combination x2 weeks, single agents x3 weeks) [%] | body weight of treated mice (RENCA tumor cells; RENCA model, FIG. 3C, alone or in combination) | Mean percent tumor growth (RENCA tumor cells; syngeneic Renca kidney cancer model, APL-101 10 mg/kg QD x3 weeks, anti-PD-1 IP 10 mg/kg BIW x3 weeks) [%] | dose deemed safe by Safety Review Committee [2]
1 | Cn1cc2cc(C(F)(F)c3nnc4ccc(-c5cnn(C6CC6)c5)nn34)c(F)cc2n1 [APL-101] | 108.73 | did not affect the body weight | safe | 35.61 | did not affect the body weight | 33.6 | did not affect the body weight | 77 | –
2 | APL-501: anti-PD-1 antibody, previously named CBT-501, see WO2016/014688 | – | – | – | – | – | – | – | – | safe
